Tests used:
[1] = system: Raji cells; experiment: Binding of IMPRIME PGG to B cell tumor line Raji; parameters: species or system human; conditions: 50 mcg/mL and 200 mcg/mL
[2] = system: human B cells in whole blood; experiment: β-glucan binding to B cells in whole blood (BfD IV staining, flow cytometry)
Experimental: Blood was collected from a healthy donor with 10 Units/mL Heparin. 100 μL of blood was mixed with IMPRIME PGG concentrations and incubated at 37° C. for 60 minutes. Cells were washed with 2 mL of PBS and supernatant removed by aspiration. Cells were then stained with 20 μL of BfD IV (U.S. Pat. No. 6,294,321) for 30 minutes before washing again with PBS. 10 μL of goat anti-mouse IgM FITC added to stain for BfD IV positive cells, while 10 μL of anti-CD19 APC was added to stain the B cell population for FACS analysis. Cells were incubated for 30 minutes at room temperature before washing with PBS. The red cells in the blood were lysed by the addition of 2 mL of BD Lyse and fixed with 2% paraformadehyde before analysis on an LSR II flow cytometer. Analysis was performed using FlowJo software.

[3] = molecular target: T1, complement receptor 2, (CR2; aka CD21) on B cells (Homo sapiens, UniProt P20023); experiment: β-glucan binding and CR2 blocking with anti-CR2 antibody; conditions: IMPRIME PGG at 100 μg/mL; whole blood or PBMC; anti-CR2 clone 1048 at 10 μg/mL
T1 construct: endogenous in cells; host or cells: B cells in whole blood or PBMC
T1 sequence (P20023 21-1033): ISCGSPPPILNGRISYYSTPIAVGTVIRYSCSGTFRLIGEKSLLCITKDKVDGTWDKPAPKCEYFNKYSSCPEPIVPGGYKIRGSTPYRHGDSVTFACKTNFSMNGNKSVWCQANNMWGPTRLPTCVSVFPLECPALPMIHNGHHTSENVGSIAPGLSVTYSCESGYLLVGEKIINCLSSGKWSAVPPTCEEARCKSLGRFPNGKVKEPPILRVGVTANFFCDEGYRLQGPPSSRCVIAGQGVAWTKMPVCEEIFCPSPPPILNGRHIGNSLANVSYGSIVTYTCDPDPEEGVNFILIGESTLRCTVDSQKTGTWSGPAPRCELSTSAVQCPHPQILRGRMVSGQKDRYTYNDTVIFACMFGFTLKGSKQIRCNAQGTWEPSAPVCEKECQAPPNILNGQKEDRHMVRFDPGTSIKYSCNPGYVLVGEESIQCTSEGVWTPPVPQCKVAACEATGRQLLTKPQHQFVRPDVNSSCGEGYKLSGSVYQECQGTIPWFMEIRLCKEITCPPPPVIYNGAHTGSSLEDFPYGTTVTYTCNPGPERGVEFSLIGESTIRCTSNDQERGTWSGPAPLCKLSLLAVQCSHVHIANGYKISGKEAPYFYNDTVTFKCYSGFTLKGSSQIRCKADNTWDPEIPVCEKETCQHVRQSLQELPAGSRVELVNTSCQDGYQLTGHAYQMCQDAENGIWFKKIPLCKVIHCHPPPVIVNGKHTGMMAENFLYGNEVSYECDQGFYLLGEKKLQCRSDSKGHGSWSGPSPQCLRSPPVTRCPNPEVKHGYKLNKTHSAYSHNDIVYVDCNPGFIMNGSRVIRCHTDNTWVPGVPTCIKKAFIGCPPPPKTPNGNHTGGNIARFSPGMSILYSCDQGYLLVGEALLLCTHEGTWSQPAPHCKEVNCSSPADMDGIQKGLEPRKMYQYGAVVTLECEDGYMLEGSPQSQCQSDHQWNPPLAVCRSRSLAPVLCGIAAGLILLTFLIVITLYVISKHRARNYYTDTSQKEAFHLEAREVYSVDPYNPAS
Experimental: Whole blood or PBMC were pre-incubated with specific receptor blocking antibodies or the relevant isotype controls at 4° C. for 30-45 minutes before addition of IMPRIME PGG at 100 μg/mL. Binding to B cells was performed as described in Example 1. Clone 1048, the mouse mAb against CR2, and mouse IgG1 isotype control was used at 10 μg/mL/1×10^6 cells. Results are shown in FIG. 3B (Whole Blood) and FIG. 3C (PBMC).

[4] = system: B cells; experiment: Calcium flux in PBMC B cells treated in vitro with soluble β-glucan, then stimulated with anti-IgM; type: cell-based, human; conditions: 100 μg/mL, 37° C., one hour; anti-IgM 2.6 μg/mL
Experimental: FURA RED and FLUO-4 (each from Invitrogen, Life Technologies Corp., Carlsbad, Calif.) calcium stain was added to serum free RPMI medium to a final concentration of 3 μM for each dye, then incubated at 37° C. for 30 minutes. PBMCs mixed 1:1 with media containing 10% FCS and incubated an additional 10 minutes. The cells were washed 2× with media containing 10% FCS. Cells were resuspended in RPMI with 10% human serum.
The resuspended cells were incubated with or without the addition of 100 μg/mL IMPRIME PGG at 37° C. for one hour. The monoclonal antibody CD20 APC (BioLegend, Inc., San Diego, Calif.) was added to each tube for 10 minute incubation before washing 2× with RPMI containing 10% FCS. Cells were resuspended in RPMI with 10% FCS for FACS analysis. Calcium flux was induced by stimulating the B cells with goat anti-human IgM at 2.6 μg/mL.

[5] = system: Daudi cells; experiment: Binding of IMPRIME PGG to B cell tumor line Daudi; parameters: species or system human; conditions: 50 mcg/mL and 200 mcg/mL
[6] = system: human B cells in enriched PBMC; experiment: β-glucan binding to B cells in enriched PBMC (BfD IV staining, flow cytometry); conditions: various hexose concentrations, 37° C., two hours
Experimental: Enriched PBMC were resuspended at 1×10^6 cells/mL in RPMI 1640 supplemented with 10% serum. The β-glucans (IMPRIME PGG (B) and laminarin (C)) at various hexose concentration were added to the cells and incubated in a 37° C., 5% C02 humidified incubator for two hours. After incubation, cells were washed twice with FACS buffer (HBSS supplemented with 1% FBS and 0.1% sodium azide) to remove any unbound β-glucan, and subsequently treated with Fc block. After the Fc block step, cells were stained with the monoclonal antibody BfD IV (U.S. Pat. No. 6,294,321) for 30 minutes at 4° C. and washed twice with cold FACS buffer. Cells were then incubated with FITC-conjugated F(ab′)2 goat anti-mouse IgM for 30 minutes at 4° C. and washed once with cold FACS buffer before fixing with 1% paraformaldehyde. Events were collected on a LSRII flow cytometer and analysis was performed using FlowJo software. Results are shown in FIG. 2B (IMPRIME PGG) and FIG. 2C (laminarin).

[7] = system: CD19+ B cells; experiment: Targeted binding of β-glucan and β-glucan-ERBITUX conjugate to CD19+ B cells in whole blood; parameters: species or system human; conditions: 10 μg/mL, 30 minutes at 37° C.
Experimental: Cells were washed twice with PBS before staining with the β-glucan specific antibody BfD IV (U.S. Pat. No. 6,294,321). Cells were washed again and stained with an antibodies specific for human IgG to detect ERBITUX and CD19 to label B cells. Cells were analyzed on and LSRII flow cytometer and the groups were compared by gating on CD19^+ B cells.

[8] = system: B cells; experiment: Calcium flux in B cells of subjects treated in vivo with particulate oral β-glucan, then stimulated with anti-IgM; parameters: species or system human; conditions: 100 mg/day to 1000 mg/day, anti-IgM 10, 2 or 0.4 μg/mL
Experimental: Blood was drawn from untreated donors (n=15) or donors (n=12) treated with particulate oral β-glucan (U.S. Pat. No. 7,981,447) at dosages ranging from 100 mg/day to 1000 mg/day. PBMCs were isolated from blood using a ficoll gradient.
The isolated PBMCs were treated with 6 μM FURA RED and 3 μM FLUO-4 (each from Invitrogen, Life Technologies Corp., Carlsbad, Calif.) in PBS for 45 minutes at 37° C. The cells were washed 2× with PBS and stained with anti-CD20 APC (BioLegend, Inc., San Diego, Calif.) for 20 minutes at room temperature. Cells were washed 2× and resuspended in RPMI containing 2.5% FCS for FACS analysis. Calcium flux was induced by stimulating the B cells with goat anti-human IgM at 10 μg/mL, 2 μg/mL, or 0.4 μg/mL.

Substance: β(1,6)-[poly-1,3)-D-glucopyranosyl]-poly-b(1,3)-D-glucopyranose [IMPRIME PGG]
- binding to Raji B cell tumor line [1]: bound to these tumor lines in a concentration-dependent manner
- binding to B cells in whole blood (MFI of BfD IV staining) ([2]; various concentrations, 37° C., 60 minutes): bind directly to human B cells
- binding to CR2 on B cells (blocking by anti-CR2 antibody) [3]: binds to complement receptor 2
- calcium flux of B cells after goat anti-human IgM stimulation [4]: larger and more sustained calcium flux
- binding to Daudi B cell tumor line [5]: bound to these tumor lines in a concentration-dependent manner
- binding to B cells in enriched PBMC (MFI of BfD IV staining) [6]: bind directly to human B cells
- β-glucan detected on CD19+ B cells with anti-β-glucan antibody BfD IV [7]: positive for β-glucan

Substance: β(1,6)-[poly-1,3)-D-glucopyranosyl]-poly-b(1,3)-D-glucopyranose [particulate form of β-glucan]
- calcium flux of B cells after goat anti-human IgM stimulation, treated vs untreated subjects [8]: decrease calcium flux

Substance: Laminarin [reference compound]
- binding to B cells in enriched PBMC (MFI of BfD IV staining) [6]: bind directly to human B cells

Substance: BT-1110: bovine serum albumin (BSA) conjugated to IMPRIME PGG
- MFI of BfD IV staining on B cells compared to unconjugated IMPRIME PGG ([2]; 50 μg/mL, whole blood): higher

Source: patent publication US9943607B2, “Beta-glucan compounds, compositions, and methods” (Biothera, Inc., priority 2011, dated 2018)
